Reference: PubChem BioAssay AID330 (DTP/NCI, 2004)
Several values for one entry are separate records, joined by “and”; a condition that tells them apart may be missing. Identical values can stand only once. Inconclusive results and toxic doses are left out. How the source made its calls: active means survival T/C of 150% or more; inactive means T/C below 125% in these data.

Test system: P388 leukemia ip, CD2F1 mice, survival T/C
Assay: NCI In Vivo Anticancer Drug Screen. Data for tumor model P388 Leukemia (intraperitoneal) in CD2F1 (CDF1) mice
Details: endpoint: median survival time, higher = longer survival
Method in brief: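 Mice carrying the transplanted tumor received test compound or vehicle. Survival was recorded in each group, and the value is the treated-group measurement divided by that of the vehicle-treated control group.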

[1] = dose: 50.0 mg/kg/injection, schedule: Q01DX009 (ip), vehicle: Klucel (hydroxypropylcellulose) (HPC)
[2] = dose: 100.0 mg/kg/injection, schedule: Q01DX009 (ip), vehicle: Klucel (hydroxypropylcellulose) (HPC)
[3] = dose: 200.0 mg/kg/injection, schedule: Q01DX009 (ip), vehicle: Klucel (hydroxypropylcellulose) (HPC)
[4] = dose: 60.0 mg/kg/injection, schedule: Q01DX005 (ip), vehicle: Klucel (hydroxypropylcellulose) (HPC)
[5] = dose: 120.0 mg/kg/injection, schedule: Q01DX005 (ip), vehicle: Klucel (hydroxypropylcellulose) (HPC)
[6] = dose: 3.12 mg/kg/injection, schedule: Q01DX009 (ip), vehicle: saline
[7] = dose: 50.0 mg/kg/injection, schedule: Q01DX005 (ip), vehicle: Klucel (hydroxypropylcellulose) (HPC)
[8] = dose: 100.0 mg/kg/injection, schedule: Q01DX005 (ip), vehicle: Klucel (hydroxypropylcellulose) (HPC)
[9] = dose: 200.0 mg/kg/injection, schedule: Q01DX005 (ip), vehicle: Klucel (hydroxypropylcellulose) (HPC)
[10] = dose: 100.0 mg/kg/injection, schedule: Q01DX009 (ip), vehicle: saline with Tween-80
[11] = dose: 200.0 mg/kg/injection, schedule: Q01DX009 (ip), vehicle: saline with Tween-80
[12] = dose: 50.0 mg/kg/injection, schedule: Q01DX005 (ip), vehicle: saline with Tween-80
[13] = dose: 100.0 mg/kg/injection, schedule: Q01DX005 (ip), vehicle: saline with Tween-80
[14] = dose: 200.0 mg/kg/injection, schedule: Q01DX005 (ip), vehicle: saline with Tween-80

Measured: T/C

N#CN(Cc1ccccc1)C(c1ccccc1)(c1ccccc1)c1ccccc1
inactive: dose: 100.0 mg/kg/injection, schedule: Q01DX001 (ip), vehicle: Klucel (hydroxypropylcellulose) (HPC) 90 % of control | dose: 200.0 mg/kg/injection, schedule: Q01DX001 (ip), vehicle: Klucel (hydroxypropylcellulose) (HPC) 91 % of control

Cc1oc(-c2cccc(F)c2)nc1C(N)=O
inactive: [1] 102 % of control | [2] 102 % of control | [3] 100 % of control

CCOC1(C)CC(c2cc(OC)c(OC)c(OC)c2)c2cc3c(cc2O1)OCO3 (stereo not given)
inactive: [4] 96 % of control | [5] 93 % of control | dose: 240.0 mg/kg/injection, schedule: Q01DX005 (ip), vehicle: Klucel (hydroxypropylcellulose) (HPC) 92 % of control

CN(C)c1ccc(/C=C\c2cccc[n+]2C)cc1
inactive: dose: 0.39 mg/kg/injection, schedule: Q01DX009 (ip), vehicle: saline 99 % of control and 100 % of control | dose: 0.78 mg/kg/injection, schedule: Q01DX009 (ip), vehicle: saline 100 % of control and 106 % of control | dose: 1.56 mg/kg/injection, schedule: Q01DX009 (ip), vehicle: saline 100 % of control and 105 % of control | [6] 109 % of control and 114 % of control

CN(C)C1c2cc(Br)ccc2-c2ccc(Br)cc21
inactive: [7] 95 % of control | [8] 105 % of control | [9] 110 % of control

CCOC(=O)c1c[nH][nH]c1=O
inactive: dose: 25.0 mg/kg/injection, schedule: Q01DX009 (ip), vehicle: saline with Tween-80 95 % of control | dose: 50.0 mg/kg/injection, schedule: Q01DX009 (ip), vehicle: saline with Tween-80 93 % of control | dose: 100.0 mg/kg/injection, schedule: Q01DX001 (ip), vehicle: saline with Tween-80 98 % of control | [10] 101 % of control | dose: 200.0 mg/kg/injection, schedule: Q01DX001 (ip), vehicle: saline with Tween-80 106 % of control | [11] 100 % of control | dose: 400.0 mg/kg/injection, schedule: Q01DX001 (ip), vehicle: saline with Tween-80 94 % of control

CCCCCCCCNC(=O)C1C(=O)N(CCCCCCCC)C(=O)/C1=N/N (stereo not given)
inactive: dose: 100.0 mg/kg/injection, schedule: Q04DX002 (ip), vehicle: saline with Tween-80 100 % of control | dose: 200.0 mg/kg/injection, schedule: Q04DX002 (ip), vehicle: saline with Tween-80 92 % of control

CCC1=NC(C)(C)CO1
inactive: dose: 50.0 mg/kg/injection, schedule: Q01DX009 (ip), vehicle: saline 104 % of control | dose: 100.0 mg/kg/injection, schedule: Q01DX009 (ip), vehicle: saline 97 % of control | dose: 200.0 mg/kg/injection, schedule: Q01DX009 (ip), vehicle: saline 97 % of control

COC(=O)CCC(=O)N(C)CCc1c[nH]c2ccccc12
inactive: [10] 90 % of control | [11] 90 % of control | dose: 400.0 mg/kg/injection, schedule: Q01DX009 (ip), vehicle: saline with Tween-80 90 % of control

Oc1ccc([C@H]2Oc3c(c(O)cc4c3C3c5c(O)cc(O)cc5OC(c5ccc(O)cc5)(O4)[C@H]3O)CC2O)cc1 (stereo not given in full)
inactive: dose: 1.0 mg/kg/injection, schedule: Q01DX005 (ip), vehicle: Klucel (hydroxypropylcellulose) (HPC) 103 % of control | dose: 2.0 mg/kg/injection, schedule: Q01DX005 (ip), vehicle: Klucel (hydroxypropylcellulose) (HPC) 103 % of control | dose: 4.0 mg/kg/injection, schedule: Q01DX005 (ip), vehicle: Klucel (hydroxypropylcellulose) (HPC) 110 % of control | dose: 8.0 mg/kg/injection, schedule: Q01DX005 (ip), vehicle: Klucel (hydroxypropylcellulose) (HPC) 103 % of control

COc1cc2c(c3c1c(=O)c1cccnc1n3C)C=CC(C)(C)O2
inactive: [7] 101 % of control | [8] 101 % of control | [9] 91 % of control

COc1ccc(C2c3cc4c(cc3OC(C)(OC)C2C)OCO4)c(OC)c1 (stereo not given)
inactive: [12] 88 % of control | [13] 88 % of control | [14] 91 % of control

CC1CN1P(=S)(Oc1ccccc1)N1CC1C (stereo not given)
inactive: [10] 110 % of control | dose: 100.0 mg/kg/injection, schedule: Q04DX003 (ip), vehicle: saline with Tween-80 109 % of control | dose: 200.0 mg/kg/injection, schedule: Q04DX003 (ip), vehicle: saline with Tween-80 118 % of control | dose: 400.0 mg/kg/injection, schedule: Q04DX003 (ip), vehicle: saline with Tween-80 122 % of control

C=CCNc1ncnc2sc(SC)nc12
inactive: dose: 100.0 mg/kg/injection, schedule: Q04DX002 (ip), vehicle: distilled water + alcohol 100 % of control | dose: 200.0 mg/kg/injection, schedule: Q04DX002 (ip), vehicle: distilled water + alcohol 104 % of control | dose: 400.0 mg/kg/injection, schedule: Q04DX002 (ip), vehicle: distilled water + alcohol 99 % of control

C=CCOCC1CN2CCOC2(C)O1 (stereo not given)
inactive: dose: 200.0 mg/kg/injection, schedule: Q01DX009 (ip), vehicle: water 105 % of control | dose: 400.0 mg/kg/injection, schedule: Q01DX009 (ip), vehicle: water 97 % of control | dose: 800.0 mg/kg/injection, schedule: Q01DX009 (ip), vehicle: water 105 % of control | dose: 1600.0 mg/kg/injection, schedule: Q01DX009 (ip), vehicle: water 102 % of control

O=[N+]([O-])c1cccc2c(-c3nccc4c([N+](=O)[O-])cccc34)nccc12
inactive: [12] 87 % of control | [13] 87 % of control

CCC(C)/[N+]([O-])=N\O (stereo not given)
inactive: dose: 3.0 mg/kg/injection, schedule: Q01DX005 (ip), vehicle: Klucel (hydroxypropylcellulose) (HPC) 98 % of control | dose: 6.0 mg/kg/injection, schedule: Q01DX005 (ip), vehicle: Klucel (hydroxypropylcellulose) (HPC) 91 % of control | dose: 12.0 mg/kg/injection, schedule: Q01DX005 (ip), vehicle: Klucel (hydroxypropylcellulose) (HPC) 100 % of control | dose: 24.0 mg/kg/injection, schedule: Q01DX005 (ip), vehicle: Klucel (hydroxypropylcellulose) (HPC) 97 % of control

C=C1CC(C2OCOC3COCOC32)OC1=O (stereo not given)
inactive: [4] 104 % of control | [5] 111 % of control

N#C/C(=N\NC(=O)c1cccnc1)c1ccc(Cl)cc1
inactive: [12] 92 % of control | [13] 92 % of control | [14] 101 % of control

Brc1nn[nH]n1
inactive: [1] 101 % of control | [2] 90 % of control

CN(C)NC(=O)c1ccc(C(=O)NN(C)C)cc1
inactive: [1] 108 % of control | [2] 108 % of control | [3] 113 % of control

Cc1cnc(C)c(NN=O)n1
inactive: [6] 101 % of control and 108 % of control | dose: 6.25 mg/kg/injection, schedule: Q01DX009 (ip), vehicle: saline 116 % of control and 122 % of control | dose: 12.5 mg/kg/injection, schedule: Q01DX009 (ip), vehicle: saline 117 % of control
